{
  "source": "paper PMC8329197",
  "about": "“Compounds targeting OSBPL7 increase ABCA1-dependent cholesterol efflux preserving kidney function in two models of kidney disease” (Nature Communications, 2021)",
  "key": {"human podocytes": {"test_system": "human podocytes", "test": "apoAI-mediated cholesterol efflux in human podocytes", "assay_type": "cell-based", "experimental": "Cell lines were purchased from ATCC and subcultured for no more than passage 15, except for human podocytes, which were originally from Dr Jochen Reiser. Conditionally immortalized human podocytes were cultured under permissive conditions at 33 °C, in RPMI medium (Corning) containing 10% FBS (GIBCO), 1% penicillin/streptomycin, 0.01 mg/ml recombinant human insulin, 0.0055 mg/ml human transferrin (substantially iron-free), and 0.005 μg/ml sodium selenite (ITS, Corning). To induce differentiation, podocytes were cultured at 37 °C for 14 days in RPMI medium containing 10% FBS (GIBCO) and 1% penicillin/streptomycin. Differentiated podocytes were starved in RPMI-0.2% FBS for 18 h and then treated with 1 μM, 5 μM, and 10 μM of compounds freshly prepared in DMSO for 18 h at 37 °C as indicated.\nHuman podocytes differentiated for 13 days were labeled for 24 h at 37 °C in RPMI medium containing 2% FBS and [^3H]-cholesterol (1 μCi/ml, American Radiolabeled Chemicals). Cells were then washed 3 times with PBS and incubated with RPMI supplemented with 0.2% fat free-BSA (Sigma) with or without compounds for 18-h at 37 °C. The compounds were used at the following concentrations: Cpd C (1 μM), Cpd A (1 μM, 5 μM) and Cpd G (1 μM, 5 μM, 10 μM). Following the 18-h incubation, human apoAI (Calbiochem) was added to the media, (20 μg/mL final concentration) and the cells were incubated for another 18 h at 37 °C. Aliquots of medium collected before (T = 0 h) and after (T = 18 h) the addition of apoAI were centrifuged at 12,000 × g for 5 min and the radioactivity in the supernatant was counted by liquid scintillation. Cells were then washed with PBS, lysed 0.1% SDS, 0.1M NaOH and the radioactivity in the lysates was quantified by liquid scintillation. apoAI-mediated cholesterol efflux, expressed as %, was calculated as the amount of label released to the medium after adding apoAI (the difference in radioactivity in the medium before and after adding ApoA1) divided by the amount of total label in each well (radioactivity released to the media plus radioactivity in the lysed cells)."}, "[1]": {"test_system": "Adriamycin (ADR)-induced nephropathy in Balb/c mice", "test": "ADR nephropathy: blood urea nitrogen (BUN) and serum creatinine", "assay_type": "in vivo, mouse", "conditions": "28 days treatment", "description": "Supplement 41467_2021_24890_MOESM5_ESM.xlsx, sheet \"Supplementary Table 4\" | column: ADR+ Cpd A; ADR+ Cpd G; ADR+ Cpd C"}, "[2]": {"test_system": "Adriamycin (ADR)-induced nephropathy in Balb/c mice", "test": "ADR nephropathy: kidney cortex lipids (cholesterol ester, total cholesterol, triglycerides, Oil-red O)", "assay_type": "in vivo, mouse", "experimental": "OCT embedded kidney cortex samples were cryosectioned at 4 μm thickness and stained with Oil-Red O-isopropanol solution (Electron Microscopy Science, PA) diluted 6:4 in water, and then counterstained with Hematoxylin Harris Hg Free (VWR, PA). Sections were then evaluated using a light microscope (Olympus BX 41, Tokyo, Japan).\nSnap frozen kidney cortex samples were homogenized in 2 mM potassium phosphate buffer, pH 7, (10 µl buffer/mg tissue) using a glass douncer on ice. 100 μl of the homogenate were mixed thoroughly with 1 ml of hexane:isopropanol (3:2;v:v) per volume of tissue homogenate. The aqueous (pellet) and organic (supernatant) phases were separated by centrifugation at 12,000 × g for 5 min. Pellets (aqueous phase) were dried, reconstituted in 8 M urea, 0.1% SDS, 0.1 M NaOH, and total proteins were quantified by the BCA method (Thermofisher). The organic phase was dried by exposure to nitrogen. Lipids were then reconstituted in 100 µl isopropanol:NP-40 (9:1;v:v). Triglyceride content was assayed using a colorimetric kit according to the manufacturer’s instructions (Cayman Chemical USA). Total cholesterol and CE content were assayed using an enzymatic fluorometric method. For total cholesterol measurement, extracts were diluted 1:100 in assay buffer (100 mM potassium phosphate, 50 mM NaCl, 5 mM cholic acid, 0.1% Triton […], pH 7.4) containing cholesterol oxidase (1 U/ml), cholesterol esterase (1 U/ml), horseradish peroxidase (1 U/ml), and Amplex Red (75 µM). The reactions were incubated at 37 °C for 30 min in a black opaque 96-well plate (Greiner) and fluorescence was measured in a microplate reader (Spectramax i3X, Molecular Devices) at 530 nm excitation and 580 emission.\nFor CE determination, 150 µl of the assay buffer described above, supplemented with bovine liver catalase (45 U/ml) and cholesterol oxidase (1 U/ml), was added to 25 μl of sample and incubated overnight at 37 °C to deplete free cholesterol leaving only cholesterol esters. Then, 75 µl of cholesterol ester detection reagent (1 U/ml cholesterol oxidase, 4 U/ml cholesterol esterase, 24 U/ml horseradish peroxidase, 300 µM Amplex Red) was added. The reaction was incubated at 37 °C for 30 min and the fluorescence signal was measured as described above. Internal standards included samples containing 1 mM of cholesterol and 5 μM of cholesterol oleate in order to verify the completeness of the enzymatic decomposition of free cholesterol as well as assay sensitivity and specificity."}, "[3]": {"test_system": "Adriamycin (ADR)-induced nephropathy in Balb/c mice", "test": "ADR nephropathy: serum cholesterol and triglycerides", "assay_type": "in vivo, mouse"}, "[4]": {"conditions": "ADR-injected mice, 28-day treatment, 25th quartile"}, "[5]": {"conditions": "ADR-injected mice, 28-day treatment, 75th quartile"}, "[6]": {"conditions": "ADR-injected mice, 28-day treatment, group maximum"}, "[7]": {"conditions": "ADR-injected mice, 28-day treatment, group median"}, "[8]": {"conditions": "ADR-injected mice, 28-day treatment, group minimum"}, "[9]": {"conditions": "ADR-injected mice, 28-day treatment, individual mouse values"}},
  "note": "“And” between values parts separate entries of the source, which are not always exact repeats. Equal values may be shown once.",
  "data": [
    {"smiles": "Cc1oc(-c2cccc(C(F)(F)F)c2)nc1Cn1c(C)cc2cc(C(O)(C(F)(F)F)C(F)(F)F)ccc21", "note": "[Cpd C, reference compound]", "values": [
      {"measurement": "ApoA1-mediated cholesterol efflux (%) in podocytes", "setting": "human podocytes; 1 uM, single experiments", "result": "4.5% and 5% and 2.7% and 7.8% and 4.9% and 4.1% and 8.1%"},
      {"measurement": "Increase in apoAI-mediated cholesterol efflux vs. untreated cells", "setting": "human podocytes; Cpd G 10 µM, Cpd A 5 µM, Cpd C 1 µM", "result": "~2", "unit": "fold"},
      {"measurement": "BUN, QR(25)", "setting": "[1]; 25th quartile", "result": 16, "unit": "mg/dL"},
      {"measurement": "sCre, QR(25)", "setting": "[1]; 25th quartile", "result": 0.09, "unit": "mg/dL"},
      {"measurement": "BUN, QR(75)", "setting": "[1]; 75th quartile", "result": 20, "unit": "mg/dL"},
      {"measurement": "sCre, QR(75)", "setting": "[1]; 75th quartile", "result": 0.16, "unit": "mg/dL"},
      {"measurement": "BUN, Max", "setting": "[1]; group maximum", "result": 51, "unit": "mg/dL"},
      {"measurement": "sCre, Max", "setting": "[1]; group maximum", "result": 0.47, "unit": "mg/dL"},
      {"measurement": "BUN, Median", "setting": "[1]; group median", "result": 17, "unit": "mg/dL"},
      {"measurement": "sCre, Median", "setting": "[1]; group median", "result": 0.12, "unit": "mg/dL"},
      {"measurement": "BUN, Min", "setting": "[1]; group minimum", "result": 13, "unit": "mg/dL"},
      {"measurement": "sCre, Min", "setting": "[1]; group minimum", "result": 0.09, "unit": "mg/dL"},
      {"measurement": "Blood Urea nitrogen (BUN)", "setting": "[1]; individual mouse values", "result": "13 mg/dL and 32 mg/dL and 18 mg/dL and 16 mg/dL and 20 mg/dL and 51 mg/dL and 17 mg/dL"},
      {"measurement": "Serum Creatinine sCre", "setting": "[1]; individual mouse values", "result": "0.16 mg/dL and 0.47 mg/dL and 0.12 mg/dL and 0.09 mg/dL and 0.29 mg/dL and 0.14 mg/dL"},
      {"measurement": "KIDNEY CORTEX TOTAL CHOLESTEROL", "setting": "[2]; ADR model, individual animals", "result": "169.86 nmol Chol./mg protein and 129.15 nmol Chol./mg protein and 254.63 nmol Chol./mg protein and 268.95 nmol Chol./mg protein and 152.74 nmol Chol./mg protein and 180.44 nmol Chol./mg protein and 182.39 nmol Chol./mg protein and 272.02 nmol Chol./mg protein and 254.98 nmol Chol./mg protein"},
      {"measurement": "KIDNEY CORTEX TRIGLYCERIDES", "setting": "[2]; ADR model, individual animals", "result": "43.01 nmol Triglyceride /mg protein and 83.04 nmol Triglyceride /mg protein and 58.7 nmol Triglyceride /mg protein and 29.67 nmol Triglyceride /mg protein and 36.87 nmol Triglyceride /mg protein and 243.76 nmol Triglyceride /mg protein and 196.92 nmol Triglyceride /mg protein and 133.68 nmol Triglyceride /mg protein and 574.71 nmol Triglyceride /mg protein"},
      {"measurement": "Animals with higher triglyceride content in kidney cortexes", "setting": "[2]; ADR, Cpd C 10 mg/Kg", "result": "about 30%"},
      {"measurement": "SERUM CHOLESTEROL", "setting": "[3]; ADR model, individual animals", "result": "104 and 64 and 223 and 112 and 98 and 124 and 145 and 136 and 60"},
      {"measurement": "SERUM TRIGLYCERIDES", "setting": "[3]; ADR model, individual animals", "result": "57 and 182 and 112 and 55 and 91 and 62 and 66 and 44"},
      {"measurement": "Serum cholesterol, QR(25)", "setting": "[3]; [4]", "result": 98, "unit": "mg/dL"},
      {"measurement": "Serum triglycerides, QR(25)", "setting": "[3]; [4]", "result": 57, "unit": "mg/dL"},
      {"measurement": "Serum cholesterol, QR(75)", "setting": "[3]; [5]", "result": 136, "unit": "mg/dL"},
      {"measurement": "Serum triglycerides, QR(75)", "setting": "[3]; [5]", "result": 91, "unit": "mg/dL"},
      {"measurement": "Serum cholesterol, Max", "setting": "[3]; [6]", "result": 223, "unit": "mg/dL"},
      {"measurement": "Serum triglycerides, Max", "setting": "[3]; [6]", "result": 182, "unit": "mg/dL"},
      {"measurement": "Serum cholesterol, Median", "setting": "[3]; [7]", "result": 112, "unit": "mg/dL"},
      {"measurement": "Serum triglycerides, median", "setting": "[3]; [7]", "result": 62, "unit": "mg/dL"},
      {"measurement": "Serum cholesterol, Min", "setting": "[3]; [8]", "result": 60, "unit": "mg/dL"},
      {"measurement": "Serum triglycerides, Min", "setting": "[3]; [8]", "result": 44, "unit": "mg/dL"},
      {"measurement": "SERUM CHOLESTEROL", "setting": "[3]; [9]", "result": "64 mg/dL and 223 mg/dL and 112 mg/dL and 98 mg/dL and 124 mg/dL and 145 mg/dL and 136 mg/dL and 60 mg/dL and 104 mg/dL"},
      {"measurement": "SERUM TRIGLYCERIDES", "setting": "[3]; [9]", "result": "57 mg/dL and 62 mg/dL and 66 mg/dL and 44 mg/dL and 182 mg/dL and 112 mg/dL and 55 mg/dL and 91 mg/dL"},
      {"measurement": "Cholesterol (mg/dL), Median(IQR)", "setting": "[3]; serum, after ADR challenge", "result": "112(81-141) mg/dL"},
      {"measurement": "Cholesterol (mg/dL), Range", "setting": "[3]; serum, after ADR challenge", "result": "60 to 223", "unit": "mg/dL"},
      {"measurement": "Cholesterol, % of the group> 112 mg/dL", "setting": "[3]; serum, after ADR challenge", "result": 30, "unit": "%"},
      {"measurement": "Triglycerides (mg/dL), Median(IQR)", "setting": "[3]; serum, after ADR challenge", "result": "62(56-102) mg/dL"},
      {"measurement": "Triglycerides (mg/dL), Range", "setting": "[3]; serum, after ADR challenge", "result": "44 to 182", "unit": "mg/dL"}
    ]}
  ]
}
